Measured values as given in US9085608B2, “Treatment of biofilms” (LYTIX BIOPHARMA AS, priority 2008, dated 2015).
Values after ≈ are worked out from the molar mass of the structure shown. Residues, ends and D or L forms follow the SMILES beside them. *: point of attachment. NHPhenethyl = c1ccc(CCN*)cc1

Tests used:
Type in all cases: cell-based
42-77 S. epidermidis = conditions: planctonic
Description: (§1) Minimum Inhibitory Concentration (MIC) on Planctonic Bacteria

51-03 S. haemolyticus = conditions: planctonic
Description: as §1

51-07 S. haemolyticus = conditions: planctonic
Description: as §1

8-16 S. epidermidis = conditions: planctonic
Description: as §1

PIA 9 S. aureus = conditions: planctonic
Description: as §1

PIA 90 S. aureus = conditions: planctonic
Description: as §1

[1] = test system: 42-77 S. epidermidis biofilm; assay: MBIC, biofilm survival rate by Alamar blue, Example 3; conditions: 24 h
Experimental: (§2) Biofilm formation was induced in 96-well flat bottom microtitre plates (Nunclon Surface, NUNC). First, overnight cultures were diluted 1:100 in MHIIB (S. epidermidis and S. haemolyticus) or tryptic soy broth (TSB) with 5% glucose and 5% NaCl (S. aureus). […] of this bacterial suspension (10^7 cfu/ml) was added to each well and incubated for 24 h at 37° C. After 24 h the wells were carefully washed twice with phosphate-buffered saline (PBS) to remove planktonic bacteria. The washing procedure was carefully evaluated by measuring metabolic activity of the PBS with the Alamar blue method, described in detail below.
(§3) The washed biofilms were subjected to treatment with the Compounds at different concentrations.
(§4) Trifluoroacetate salts of the compounds were dissolved in sterile water and diluted to 5 mg/L, 50 mg/L and 500 mg/L in MHIIB. […] of the Compounds, in different concentrations, were added to each well and incubated for 24 h at 37° C. Positive controls were untreated biofilms only added 200 MHIIB. Negative controls were only 200 μl MHIIB, with no bacteria added.
(§5) The metabolic activity of the biofilm was quantified with a slightly modified method previously described by Pettit et al. Antimicrob. Agents Chemother. 2005; 49: 2612-7. Briefly, after the 24 h incubation with antimicrobial agents the wells were again washed twice with PBS and then added […] MHIIB with 5% Alamar blue (AB; Biosource, Camarillo, Calif., USA). AB is a redox indicator which both fluoresces and changes colour in response to chemical reduction. The extent of reduction is a reflection of bacterial cell viability. After 1 h incubation at 37° C., absorbance was recorded at 570 and 600 nm using Versamax tuneable microplate reader (Molecular Devices, Sunnyvale, Calif., USA). All assays were performed 3 times with 8 parallels. The highest and lowest value of each run was excluded from the analyses, and the remaining 18 values were averaged.

[2] = test system: 51-03 S. haemolyticus biofilm; assay: as above; conditions: 24 h
Experimental: as §2, §3, §4, §5

[3] = test system: 51-07 S. haemolyticus biofilm; assay: as above; conditions: 24 h
Experimental: as §2, §3, §4, §5

[4] = test system: 8-16 S. epidermidis biofilm; assay: as above; conditions: 24 h
Experimental: as §2, §3, §4, §5

PIA 9 S. aureus biofilm = assay: as above; conditions: 24 h
Experimental: as §2, §3, §4, §5

PIA 90 S. aureus biofilm = assay: as above; conditions: 24 h
Experimental: as §2, §3, §4, §5

N=C(N)NCCC[C@H](NC(=O)[C@H](Cc1c[nH]c2ccccc12)NC(=O)[C@H](Cc1c[nH]c2ccccc12)NC(=O)[C@@H](N)CCCNC(=N)N)C(=O)NCCc1ccccc1 [ME 171 B, R-W-W-R-NH-CH2CH2Ph] (H-RWWR-NHPhenethyl)
MIC (42-77 S. epidermidis): 64 µg/mL (≈ 79.4 µM) | MIC (51-03 S. haemolyticus): 32 µg/mL (≈ 39.7 µM) | MIC (51-07 S. haemolyticus): 32 µg/mL (≈ 39.7 µM) | MIC (8-16 S. epidermidis): 64 µg/mL (≈ 79.4 µM) | MIC (PIA 9 S. aureus): 128 µg/mL (≈ 159 µM) | MIC (PIA 90 S. aureus): 128 µg/mL (≈ 159 µM) | MBIC measured as survival rate ([1]; 5 μg/ml): 100% | MBIC measured as survival rate ([1]; 50 μg/ml): 90% | MBIC measured as survival rate ([1]; 500 μg/ml): 10% | MBIC measured as survival rate ([2]; 5 μg/ml): 100% | MBIC measured as survival rate ([2]; 50 μg/ml): 8% | MBIC measured as survival rate ([2]; 500 μg/ml): 9% | MBIC measured as survival rate ([3]; 5 μg/ml): 100% | MBIC measured as survival rate ([3]; 50 μg/ml): 60% | MBIC measured as survival rate ([3]; 500 μg/ml): 12% | MBIC measured as survival rate ([4]; 5 μg/ml): 100% | MBIC measured as survival rate ([4]; 50 μg/ml): 70% | MBIC measured as survival rate ([4]; 500 μg/ml): 4% | MBIC measured as survival rate (PIA 9 S. aureus biofilm; 5 μg/ml): 100% | MBIC measured as survival rate (PIA 9 S. aureus biofilm; 50 μg/ml): 100% | MBIC measured as survival rate (PIA 9 S. aureus biofilm; 500 μg/ml): 90% | MBIC measured as survival rate (PIA 90 S. aureus biofilm; 5 μg/ml): 100% | MBIC measured as survival rate (PIA 90 S. aureus biofilm; 50 μg/ml): 80% | MBIC measured as survival rate (PIA 90 S. aureus biofilm; 500 μg/ml): 5%

N=C(N)NCCC[C@H](NC(=O)[C@H](Cc1c[nH]c2ccccc12)NC(=O)[C@H](Cc1c[nH]c2ccccc12)NC(=O)[C@H](CCCNC(=N)N)NC(=O)[C@@H](N)Cc1c[nH]c2ccccc12)C(=O)NCCc1ccccc1 [ME 172, W-R-W-W-R-NH-CH2CH2Ph] (H-WRWWR-NHPhenethyl)
MIC (42-77 S. epidermidis): 16 µg/mL (≈ 16.1 µM) | MIC (51-03 S. haemolyticus): 8 µg/mL (≈ 8.06 µM) | MIC (51-07 S. haemolyticus): 8 µg/mL (≈ 8.06 µM) | MIC (8-16 S. epidermidis): 16 µg/mL (≈ 16.1 µM) | MIC (PIA 9 S. aureus): 16 µg/mL (≈ 16.1 µM) | MIC (PIA 90 S. aureus): 32 µg/mL (≈ 32.3 µM) | MBIC measured as survival rate ([1]; 5 μg/ml): 100% | MBIC measured as survival rate ([1]; 50 μg/ml): 85% | MBIC measured as survival rate ([1]; 500 μg/ml): 10% | MBIC measured as survival rate ([2]; 5 μg/ml): 100% | MBIC measured as survival rate ([2]; 50 μg/ml): 6% | MBIC measured as survival rate ([2]; 500 μg/ml): 8% | MBIC measured as survival rate ([3]; 5 μg/ml): 100% | MBIC measured as survival rate ([3]; 50 μg/ml): 41% | MBIC measured as survival rate ([3]; 500 μg/ml): 12% | MBIC measured as survival rate ([4]; 5 μg/ml): 100% | MBIC measured as survival rate ([4]; 50 μg/ml): 80% | MBIC measured as survival rate ([4]; 500 μg/ml): 20% | MBIC measured as survival rate (PIA 9 S. aureus biofilm; 5 μg/ml): 100% | MBIC measured as survival rate (PIA 9 S. aureus biofilm; 50 μg/ml): 100% | MBIC measured as survival rate (PIA 9 S. aureus biofilm; 500 μg/ml): 18% | MBIC measured as survival rate (PIA 90 S. aureus biofilm; 5 μg/ml): 100% | MBIC measured as survival rate (PIA 90 S. aureus biofilm; 50 μg/ml): 55% | MBIC measured as survival rate (PIA 90 S. aureus biofilm; 500 μg/ml): 10%
